Assay [1] has as its system substance P-induced scratching behavior. As to the kind of experiment: substance P-induced scratching behavior after intrathecal pre-administration of test peptide. It counts as in vivo, rat. The following applies: for number of scratching events induced by substance P, relative to control group (saline+SP = 100%): 10^-3M (10 nmol/10 μl) peptide intrathecal, 10^-3M SP 30 minutes after peptide; for number of scratching events induced by substance P, relative to control group (saline+SP = 100%) / number of scratching events induced by substance P, relative to control group: FIG. 1; for scratching behavior induced by substance P / suppressive effects: Example 3, FIG. 3, control 380 scratching; for scratching behavior induced by substance P / suppressive effects / scratching behavior induced by substance P / suppressive effects on scratching as administration interval is prolonged: 10^-3M peptide; for scratching behavior induced by substance P / suppressive effects / scratching behavior induced by substance P: SP 4 hours after peptide; for scratching behavior induced by substance P / suppressive effects on scratching as administration interval is prolonged: Example 2, FIG. 2; for scratching behavior induced by substance P: control about 380 scratching; for suppressive effects on scratching as administration interval is prolonged: interval 8 hours and then 14 hours. The protocol: In Example 1, 10^−3M (10 nmol/10 μl) EKC/D or D-EKC/D (1), (2) or (3) was administered to intrathecally catheterized rats via catheters. After the predetermined time periods denoted on the horizontal axis in FIG. 1, the numbers of scratching events (scratching behavior) induced by intrathecal administration of 10^−3M (10 nmol/10 μl) substance P (hereafter, referred to as “SP”) were determined. Here, the expression “10^−3M (10 nmol/10 μl) EKC/D or D-EKC/D (1), (2), or (3) was administered” refers to a situation in which 10 μl in total of a solution (that is, 10^−3M solution) containing 10 nmol of EKC/D or D-EKC/D (1), (2), or (3) was all administered. The expression, “ . . . administration of 10^−3M substance P (10 nmol/10 μl)” refers to a situation in which 10 μl in total of a solution (that is, 10^−3M solution) containing 10 nmol of the substance was all administered. The same similarly applies below.
Meanwhile, saline (10 μl) was intrathecally administered to intrathecally catheterized rats via catheters and then, after 30 minutes, 10^−3M SP (10 nmol/10 μl) was intrathecally administered to the rats. The number of the thus induced scratching events was determined to be the number of scratching events in the control group. The control group is denoted with saline-4-SP in FIG. 1.
The vertical axis of the graph in FIG. 1 indicates changes in the numbers of scratching events (represented by relative values) due to administration of 10^−3M EKC/D or D-EKC/D (1), (2), or (3) when the number of scratching events (of untreated rats in a control group) induced by intrathecal administration of 10^−3M substance P was determined to be 100%. Meanwhile, the horizontal axis indicates the intervals between the administration of EKC/D, D-EKC/D (1), (2), or (3) and 10^−3M substance P. […]
The test was conducted with procedures similar to those in Example 1, except for 4 hours of interval between the administration of each test peptide and the administration of substance P. The concentration of each test peptide and that of substance P for administration were determined to be 10^−3M (10 nmol/10 μl), similarly to Example 1. The number of scratching events in the control group was determined with procedures similar to those in Example 1, such that substance P was administered at 30 minutes after administration of saline (10 μl) and then the number was determined.

For assay [2], the system named is SP-induced thermal hyperalgesia. The assay is described as follows: SP-induced thermal hyperalgesia (withdrawal latency) after intrathecal pre-administration of peptide. In kind it is in vivo, rat. The following applies: 10^-3M (10 nmol/10 μl) peptide intrathecal, FIG. 7. From the text: In this test, the effects of intrathecal pre-administration with D-EKC/D (1), (2), and (3) on the induction of thermal hyperalgesia following intrathecal administration of SP were confirmed using as an index thermal hyperalgesia, which is one type of pain-related behavior. The effects can be evaluated based on withdrawal latency period, which is the time required for withdrawal response to take place after application of noxious thermal stimulation to plantar using infrared rays.
In Example 4, 10^−3M (10 nmol/10 μl) D-EKC/D (1), (2), or (3) was administered to intrathecally catheterized rats via catheters, intrathecal administration of 10^−6M (10 pmol/10 μl) SP was performed at 4 hours and at 8 hours after administration of D-EKC/D, the presence or the absence of hyperalgesia following intrathecal administration of SP was evaluated based on the time (latency period) required for withdrawal response to take place, the latency period following SP administration in rats pretreated with D-EKC/D and the latency period resulting from administration of SP alone were compared, and thus the effects of preadministration of D-EKC/D (1), (2), and (3) were evaluated.

The mark [3] stands for this setting: 10^-3M peptide intrathecal, SP 1 hour after peptide.
The mark [4] stands for this setting: 10^-6M SP 4 hours later, saline about 20 seconds, SP about 13 seconds.
Setting [5] is: 10^-3M (10 nmol/10 μl) Spantide I intrathecal, FIG. 6.

“Also recorded” adds a separate entry of the source. Square brackets hold non-standard residues; d marks the D form. Ends that are not written are not given here. Where only a bound is given, the exact number is not on record here.

The text below walks through data of patent publication US8853359B2, “Endokinin C/D-derived peptides” (University of Miyazaki, priority 2009, dated 2014).

“Ala-Tyr-Gln-Leu-Glu-His-Thr-DTrp-Gln-Gly-Leu-Leu-NH2 (AYQLEHTXQGLL; HELM PEPTIDE1{A.Y.Q.L.E.H.T.[dW].Q.G.L.L.[am]}$$$$V2.0; N-terminus assumed; SMILES CC(C)C[C@H](NC(=O)[C@H](CC(C)C)NC(=O)CNC(=O)[C@H](CCC(N)=O)NC(=O)[C@@H](Cc1c[nH]c2ccccc12)NC(=O)[C@@H](NC(=O)[C@H](Cc1c[nH]cn1)NC(=O)[C@H](CCC(=O)O)NC(=O)[C@H](CC(C)C)NC(=O)[C@H](CCC(N)=O)NC(=O)[C@H](Cc1ccc(O)cc1)NC(=O)[C@H](C)N)[C@@H](C)O)C(N)=O) [D-EKC/D (2)]”: in assay [1], the “number of scratching events induced by substance P, relative to control group (saline+SP = 100%)” value was “about 20%”. Moreover, the “number of scratching events induced by substance P, relative to control group” value is on record as “slight tendency of restoration” in assay [1] (setting [3]) and “almost the same effects were exhibited” in assay [1] (10^-3M peptide intrathecal, administration interval of 45 minutes). Also, the “effect on latency period following administration of SP” value in assay [2] (setting [4]) is on record as “significantly attenuated”; in assay [2] (10^-6M SP 8 hours later) it was “significant attenuation”.
Turning to “Thr-Phe-Gln-DTrp-Leu-Leu-NH2 (TFQXLL; HELM PEPTIDE1{T.F.Q.[dW].L.L.[am]}$$$$V2.0; N-terminus assumed; SMILES CC(C)C[C@H](NC(=O)[C@H](CC(C)C)NC(=O)[C@@H](Cc1c[nH]c2ccccc12)NC(=O)[C@H](CCC(N)=O)NC(=O)[C@H](Cc1ccccc1)NC(=O)[C@@H](N)[C@@H](C)O)C(N)=O) [D-EKC/D (7)]”, the “scratching behavior induced by substance P / suppressive effects” value in assay [1] is listed as “attenuated; also recorded: minimum suppressive effects”.
On to “DArg-Pro-Lys-Pro-Gln-Gln-DTrp-Phe-DTrp-Leu-Leu-NH2 ([dR]PKPQQ[dW]F[dW]LL-NH2) [Spantide I, reference compound]”, for which, in assay [1] (setting [5]), the “duration of suppressive effects on substance P-induced scratching behavior” value was at most 30 min and the “effect on substance P-induced scratching behavior” value was “suppressed”.
Turning to “Leu-Glu-His-Thr-Phe-Gln-DTrp-Leu-Leu-NH2 (LEHTFQXLL; HELM PEPTIDE1{L.E.H.T.F.Q.[dW].L.L.[am]}$$$$V2.0; N-terminus assumed; SMILES CC(C)C[C@H](NC(=O)[C@H](CC(C)C)NC(=O)[C@@H](Cc1c[nH]c2ccccc12)NC(=O)[C@H](CCC(N)=O)NC(=O)[C@H](Cc1ccccc1)NC(=O)[C@@H](NC(=O)[C@H](Cc1c[nH]cn1)NC(=O)[C@H](CCC(=O)O)NC(=O)[C@@H](N)CC(C)C)[C@@H](C)O)C(N)=O) [D-EKC/D (4)]”, in assay [1], the “scratching behavior induced by substance P” value is on record as “never induced”, the “suppressive effects on scratching as administration interval is prolonged” value was “gradually attenuated” and the “scratching behavior induced by substance P / suppressive effects” value is “attenuated”. Besides, in assay [1] (Example 2 discussion), the “suppressive effects compared with [D-Trp^10]-EKC/D consisting of 12 amino acids” value is “suppressive effects almost similar to those of [D-Trp^10]-EKC/D”.
“Ala-Tyr-Gln-Leu-Glu-His-Thr-DTrp-Gln-DTrp-Leu-Leu-NH2 (AYQLEHTXQXLL; HELM PEPTIDE1{A.Y.Q.L.E.H.T.[dW].Q.[dW].L.L.[am]}$$$$V2.0; N-terminus assumed; SMILES CC(C)C[C@H](NC(=O)[C@H](CC(C)C)NC(=O)[C@@H](Cc1c[nH]c2ccccc12)NC(=O)[C@H](CCC(N)=O)NC(=O)[C@@H](Cc1c[nH]c2ccccc12)NC(=O)[C@@H](NC(=O)[C@H](Cc1c[nH]cn1)NC(=O)[C@H](CCC(=O)O)NC(=O)[C@H](CC(C)C)NC(=O)[C@H](CCC(N)=O)NC(=O)[C@H](Cc1ccc(O)cc1)NC(=O)[C@H](C)N)[C@@H](C)O)C(N)=O) [D-EKC/D (1)]”: the “number of scratching events induced by substance P, relative to control group (saline+SP = 100%)” value in assay [1] is listed as “about 40%”. Further, in assay [1] (10^-3M peptide intrathecal, 10^-3M SP), the “duration of suppressive effects on substance P-induced scratching behavior” value is on record as “almost the same as that of the EKC/D consisting only of L-type amino acids”. In addition, the “number of scratching events induced by substance P, relative to control group” value in assay [1] (setting [3]) is on record as “disappeared”. The “effect on latency period following administration of SP” value in assay [2] (setting [4]) is “significantly attenuated”; in assay [2] (10^-6M SP 8 hours later), “differs from D-EKC/D (2) and (3) in duration of effectiveness”.
For “His-Thr-Phe-Gln-DTrp-Leu-Leu-NH2 (HTFQXLL; HELM PEPTIDE1{H.T.F.Q.[dW].L.L.[am]}$$$$V2.0; N-terminus assumed; SMILES CC(C)C[C@H](NC(=O)[C@H](CC(C)C)NC(=O)[C@@H](Cc1c[nH]c2ccccc12)NC(=O)[C@H](CCC(N)=O)NC(=O)[C@H](Cc1ccccc1)NC(=O)[C@@H](NC(=O)[C@@H](N)Cc1c[nH]cn1)[C@@H](C)O)C(N)=O) [D-EKC/D (6)]”, in assay [1], the “scratching behavior induced by substance P” value was “significant suppressive effects were observed”, the “suppressive effects on scratching as administration interval is prolonged” value is “attenuated” and the “scratching behavior induced by substance P / suppressive effects” value was “attenuated”.
Turning to “Phe-Gln-DTrp-Leu-Leu-NH2 (FQXLL; HELM PEPTIDE1{F.Q.[dW].L.L.[am]}$$$$V2.0; N-terminus assumed; SMILES CC(C)C[C@H](NC(=O)[C@H](CC(C)C)NC(=O)[C@@H](Cc1c[nH]c2ccccc12)NC(=O)[C@H](CCC(N)=O)NC(=O)[C@@H](N)Cc1ccccc1)C(N)=O) [D-EKC/D (8)]”, the “scratching behavior induced by substance P / suppressive effects” value in assay [1] is on record as “Almost no suppressive effects; also recorded: almost the same as that of the control group”.
